Where two headings read alike, the source gives them in different places.

Data set [1] has as its system MDA-MB-231 (human adenocarcinoma, breast cancer). The data set can be described thus: WST-1 antiproliferative assay, breast cancer MDA-MB-231. It is filed as cell-based. The following applies: for IC50: WST-1 test, incubation time 72 h, read-out: Human Cell Line/IC50 ± SD MDA-MB-231; for selectivity index (SI): breast cancer (MDA-MB-231) cell line. The protocol: (§1) As a reference, the cytotoxic agent cisplatin was applied.
(§2) The synthesized compounds were tested against tumor cells SNB-19 (human glioblastoma, DSMZ-German Collection of Microorganisms and Cell Cultures, Braunschweig, Germany), MDA-MB-231 (human adenocarcinoma, breast cancer; ATCC), C-32 (human melanoma; ATCC) and nontumor cells HFF-1 (normal human fibroblasts derived from foreskin, ATCC). The cultured cells were kept at 37 °C and in 5% CO2. The cells were seeded (10^3 cells/well/[…] DMEM supplemented with FBS (Fetal Bovine Serum, Lonza) to a final concentration of 10% and streptomycin 10 mg/mL and penicillin 1000 IU/mL (Sigma), using 96-well plates (Corning).
(§3) The antiproliferative effect of the synthesized compounds was determined using the Cell Proliferation Reagent WST-1 assay (Roche Diagnostics, Mannheim, Germany). […] After an exposure to the tested compounds at concentration varying in the range 0.4–400 nM/mL, the cell viability was quantified by a cell proliferation assay. […] The cytotoxic activity of the tested compound was compared to the cisplatin (positive control). The experiments were repeated in triplicate for each concentration of the tested compound. The initial concentration of the tested compounds was 1 mg/mL DMSO. […] Calculations of the IC50 values were performed using the GraphPad Prism 6 (GraphPad Software, San Diego, CA, USA).
Background: Tetrazolium dyes change colour on reduction, which living cells bring about.

The subject of another data set is C-32 (human melanoma). The data set can be described thus: WST-1 antiproliferative assay, melanoma C-32. It counts as cell-based. The following applies: WST-1 test, incubation time 72 h, read-out: Human Cell Line/IC50 ± SD C-32. How it is done:
as §1, §2, §3

The subject of data set [2] is SNB-19 (human glioblastoma). Put plainly: WST-1 antiproliferative assay, glioblastoma SNB-19. It is filed as cell-based. The following applies: WST-1 test, incubation time 72 h, read-out: Human Cell Line/IC50 ± SD SNB-19. The protocol: as §1, §2, §3
For data set [3], the system named is HFF-1 (normal human fibroblasts). Put plainly: WST-1 antiproliferative assay, normal fibroblasts HFF-1. It counts as cell-based. To be noted: WST-1 test, incubation time 72 h, Neg = Negative in the concentration used; for IC50: read-out: Human Cell Line/IC50 ± SD HFF-1. How it is done:
as §1, §2, §3

Regarding “6-Chloro-7-(1-methylbenzyloxy)-5,8-quinolinedione [Compound 9]”, the IC50 in data set [1] worked out at 271 ± 9.8 µM; in the data set on C-32 (human melanoma), 0.81 ± 0.01 µM; in data set [2], 2.3 ± 0.5 µM; in data set [3] it was 2 ± 0.3 µM.
By melting point is commonly meant the temperature of the solid-liquid transition. For `COC1=C(Cl)C(=O)c2cccnc2C1=O` [Compound 2, 6-Chloro-7-methoxy-5,8-quinolinedione], the melting point was 161 to 163 °C. The IC50 in data set [1] (Homo sapiens, MDA-MB-231) was 1.5 ± 0.2 µM. Further, the “selectivity index (SI)” value in data set [1] came to 18.4. The IC50 in the data set on C-32 (human melanoma) (Homo sapiens) turned out to be 19.2 ± 2.1 µM. Besides, the IC50 in data set [2] (Homo sapiens, SNB-19) stood at 42.2 ± 0.1 µM. For the same compound, in data set [3] (Homo sapiens, HFF-1), the IC50 was 27.6 ± 2.1 µM.
In turn, `CCOC1=C(Cl)C(=O)c2cccnc2C1=O` [Compound 3, 6-Chloro-7-ethoxy-5,8-quinolinedione] gave a melting point of 112 to 114 °C. In data set [1] (Homo sapiens, MDA-MB-231), the IC50 stood at 24 ± 2.8 µM. Further, the IC50 in the data set with C-32 (human melanoma) (Homo sapiens) is 30.7 ± 1.1 µM. The IC50 in data set [2] (Homo sapiens, SNB-19) was determined as 10.3 ± 2.4 µM. The IC50 in data set [3] (Homo sapiens, HFF-1) worked out at 1.3 ± 0.5 µM.
`CCCOC1=C(Cl)C(=O)c2cccnc2C1=O` [Compound 4, 6-Chloro-7-propoxy-5,8-quinolinedione] showed a melting point of 121 to 122 °C. The IC50 in data set [1] (Homo sapiens, MDA-MB-231) was 22.4 ± 2.7 µM. The IC50 with C-32 (human melanoma) (Homo sapiens) was found to be 0.2 ± 0.01 µM. The IC50 in data set [2] (Homo sapiens, SNB-19) came out at 0.36 ± 0.03 µM. Also, in data set [3], the “Human Cell Line/IC50 ± SD HFF-1” value is “Neg”.
On the same counts, the results for `C=CCOC1=C(Cl)C(=O)c2cccnc2C1=O` [Compound 5, 6-Chloro-7-(2-propenoxy)-5,8-quinolinedione] are 89 to 90 °C, 17.2 ± 2.8 µM, 0.28 ± 0.09 µM, 0.3 ± 0.01 µM and “Neg”.
`O=C1C(Cl)=C(OCCCl)C(=O)c2ncccc21` [Compound 6, 6-Chloro-7-(2-chloroethoxy)-5,8-quinolinedione] gave a melting point of 114 to 116 °C. In addition, the IC50 in data set [1] (Homo sapiens, MDA-MB-231) was found to be 17 ± 3 µM. The IC50 with C-32 (human melanoma) (Homo sapiens) amounted to 22.8 ± 2.5 µM. The IC50 in data set [2] (Homo sapiens, SNB-19) was determined as 18.3 ± 1.4 µM. The IC50 in data set [3] (Homo sapiens, HFF-1) came out at 15.8 ± 1.2 µM.
On the same counts, the results for `N#CCCOC1=C(Cl)C(=O)c2cccnc2C1=O` [Compound 7, 6-Chloro-7-(2-cyanoethoxy)-5,8-quinolinedione] are 177 to 179 °C, 164 ± 3.9 µM, 119 ± 4.3 µM, 58.3 ± 2.8 µM and 2.5 ± 0.4 µM.
On the same counts, the results for `O=C1C(Cl)=C(OC2CCCCC2)C(=O)c2ncccc21` [Compound 8, 6-Chloro-7-cyclohexyloxy-5,8-quinolinedione] are 123 to 124 °C, 3.5 ± 0.3 µM, 1.4 ± 0.1 µM, 1.8 ± 0.1 µM and 13.9 ± 3 µM.
In the case of `COC1=C(OC)C(=O)c2ncccc2C1=O` [Compound 10, 6,7-Dimethoxy-5,8-quinolinedione], the melting point fell in the range of 132 to 133 °C.
`CCOC1=C(OCC)C(=O)c2ncccc2C1=O` [Compound 11, 6,7-Diethoxy-5,8-quinolinedione] had a melting point of 69 to 70 °C. Moreover, in data set [1] (Homo sapiens, MDA-MB-231), the IC50 was found to be 18.6 ± 2 µM. For the same compound, in the data set with C-32 (human melanoma) (Homo sapiens), the IC50 was determined as 17.6 ± 1.6 µM. Besides, in data set [2] (Homo sapiens, SNB-19), the IC50 was 2.1 ± 0.1 µM. In addition, the “Human Cell Line/IC50 ± SD HFF-1” value in data set [3] is given as “Neg”.
In turn, `CCCOC1=C(OCCC)C(=O)c2ncccc2C1=O` [Compound 12, 6,7-Dipropoxy-5,8-quinolinedione] registered a melting point of 133 to 135 °C. The IC50 in data set [1] (Homo sapiens, MDA-MB-231) was 3 ± 0.3 µM. For the same compound, the IC50 with C-32 (human melanoma) (Homo sapiens) was 1.1 ± 0.1 µM. In data set [2] (Homo sapiens, SNB-19), the IC50 was 0.7 ± 0.02 µM. In data set [3], the “Human Cell Line/IC50 ± SD HFF-1” value is “Neg”.
`C=CCOC1=C(OCC=C)C(=O)c2ncccc2C1=O` [Compound 13, 6,7-di(2-Propenyloxy)-5,8-quinolinedione] returned a melting point of 135 to 136 °C. The IC50 in data set [1] (Homo sapiens, MDA-MB-231) worked out at 12.6 ± 2.7 µM. For the same compound, the IC50 with C-32 (human melanoma) (Homo sapiens) came to 1.5 ± 0.01 µM. Also, the IC50 in data set [2] (Homo sapiens, SNB-19) amounted to 0.2 ± 0.01 µM. Moreover, the “Human Cell Line/IC50 ± SD HFF-1” value in data set [3] is on record as “Neg”.
Consider `O=C1C(OCCCl)=C(OCCCl)C(=O)c2ncccc21` [Compound 14, 6,7-di(2-Chloroethoxy)-5,8-quinolinedione], for which the melting point is 189 to 191 °C. In data set [1] (Homo sapiens, MDA-MB-231), the IC50 is 10.9 ± 1.4 µM. Further, the IC50 in the data set with C-32 (human melanoma) (Homo sapiens) was 12.1 ± 0.2 µM. Also, in data set [2] (Homo sapiens, SNB-19), the IC50 is 3.5 ± 0.3 µM. The IC50 in data set [3] (Homo sapiens, HFF-1) was found to be 1.9 ± 0.2 µM.
The compound `O=C1C(OCC(F)(F)F)=C(OCC(F)(F)F)C(=O)c2ncccc21` [Compound 15, 6,7-di(2,2,2-Trifluoroethoxy)-5,8-quinolinedione] gave a melting point of 110 to 111 °C. In addition, the IC50 in data set [1] (Homo sapiens, MDA-MB-231) amounted to 2.7 ± 0.1 µM. Also, the “selectivity index (SI)” value in data set [1] came to 4.6. Also, in the data set on C-32 (human melanoma) (Homo sapiens), the IC50 came out at 10.9 ± 1.3 µM. For the same compound, the IC50 in data set [2] (Homo sapiens, SNB-19) was 14.9 ± 0.7 µM. For the same compound, in data set [3] (Homo sapiens, HFF-1), the IC50 came out at 12.4 ± 1.2 µM.
In the case of `N#CCCOC1=C(OCCC#N)C(=O)c2ncccc2C1=O` [Compound 16, 6,7-di(2-Cyanoethoxy)-5,8-quinolinedione], the melting point lay in the range of 45 to 47 °C. The IC50 in data set [1] (Homo sapiens, MDA-MB-231) came to 111 ± 3.7 µM. Also, in the data set with C-32 (human melanoma) (Homo sapiens), the IC50 came out at 134 ± 10.7 µM. The IC50 in data set [2] (Homo sapiens, SNB-19) turned out to be 204 ± 14.3 µM. In data set [3] (Homo sapiens, HFF-1), the IC50 was 18.2 ± 2.6 µM.
With `O=C1C(OC2CCCCC2)=C(OC2CCCCC2)C(=O)c2ncccc21` [Compound 17, 6,7-Dicyclohexloxy-5,8-quinolinedione], the IC50 in data set [1] (Homo sapiens, MDA-MB-231) came to 13.8 ± 0.1 µM; in the data set on C-32 (human melanoma) (Homo sapiens), 1.4 ± 0.1 µM; in data set [2] (Homo sapiens, SNB-19) it was 1.7 ± 0.3 µM. Moreover, in data set [3], the “Human Cell Line/IC50 ± SD HFF-1” value is on record as “Neg”.
Consider `N.N.[Cl][Pt][Cl]` [cisplatin, reference compound], for which the IC50 came to 25.5 ± 0.2 µM in data set [1], 16.4 ± 1.2 µM in the data set with C-32 (human melanoma), 18.9 ± 0.4 µM in data set [2] and 9.1 ± 1.8 µM in data set [3].

Values taken from article PMC6273037, “Synthesis, Structure and Cytotoxic Activity of Mono- and Dialkoxy Derivatives of 5,8-Quinolinedione” (Molecules, 2016).
